Source: paper PMC4405350, “From Broad-Spectrum Biocides to Quorum Sensing Disruptors and Mussel Repellents: Antifouling Profile of Alkyl Triphenylphosphonium Salts” (PLoS ONE, 2015)

Legend:
[1] = test system: Navicula cf. salinicola BEA 0055; experiment: Benthic diatom growth inhibition (chlorophyll-a); format: cell-based; details: 120 h; growth, 5 days, chlorophyll-a; read-out: IC50 Navicula cf. salinicola
Description: (§1) All the biological assays were run by triplicate. […] For the active products, serial dilutions were performed to calculate the half-maximal inhibitory concentrations (IC50) or the minimal inhibitory concentrations (MIC). Unless otherwise stated, the test concentrations were 100, 50, 25, 10, 5, 2.5, 1, 0.5 and 0.1 μM. Dose-response curves were adjusted with GraphPad Prism 5 software using a four-parameter non-linear regression model.
(§2) Five strains of benthic diatoms, Nitszchia sp. […] The Nitzschia and Navicula strains were purchased from the Spanish Bank of Algae (Marine Biotechnology Center, University of Las Palmas de Gran Canaria). The other three strains were kindly provided by Dr. G. Courtois (University of Las Palmas de Gran Canaria). Diatoms were cultured at 19±1 °C in Erlenmeyer flaks (250 ml) containing 150 ml of Guillard’s F/2 medium, and subjected to a photoperiod of 18:6. Tests were run in 48-well plates. Inocula were prepared by adjusting diatom concentration to 2–4 × 10^6 cells ml^-1 using a Neubauer chamber. Test products were dissolved in F/2 medium (500 μl) to which diatom inocula (500 μl) were added. Thus, the final assay volume was 1 ml and the starting cell densities were ca. 1–2 x 10^6 diatoms ml^-1. Plates were incubated under the abovementioned conditions for 5 days and then chlorophyll-a (Chla) was quantified.
(§3) In order to extract Chla, the content of each well was transferred to a microcentrifuge tube and centrifuged at 10,000 rpm for 10 min. The supernatants were discarded and 200 μl of DMSO were added to the pellets. The tubes were incubated at 65 °C for 2 h in total darkness and vortexed every 30 min. Then, the content of each tube was transferred to a 96-well plate and the amount of Chla was determined spectrophotometrically. Path length correction factor for the DMSO extracts was determined.

Cylindrotheca sp. = experiment: Benthic diatom growth inhibition (chlorophyll-a); format: cell-based; details: 120 h; growth, 5 days, chlorophyll-a; read-out: IC50 Cylindrotheca sp.
Description: as §1, §2, §3

[2] = test system: Phaeodactylum tricornutum; experiment: Benthic diatom growth inhibition (chlorophyll-a); format: cell-based; details: Phaeodactylum tricornutum, 120 h; growth, 5 days, chlorophyll-a; read-out: IC50 P. tricornutum
Description: as §1, §2, §3

Amphora sp. = experiment: Benthic diatom growth inhibition (chlorophyll-a); format: cell-based; details: 120 h; growth, 5 days, chlorophyll-a; read-out: IC50 Amphora sp.
Description: as §1, §2, §3

Nitzschia sp. = experiment: Benthic diatom growth inhibition (chlorophyll-a); format: cell-based; details: 120 h; growth, 5 days, chlorophyll-a; read-out: IC50 Nitzschia sp.
Description: as §1, §2, §3

C. violaceum CVO26 = C. violaceum CVO26 growth inhibition (OD625); format: cell-based; details: Chromobacterium violaceum, CVO26, 18 h, read-out: IC50 (Growth inhibition)
Description: The reporter strain C. violaceum CVO26 (CECT 5999) was used to screen the ability of the products to interfere with violacein production, a QS-regulated phenotype. C. violaceum CVO26 is a mini-Tn5 mutant that depends on an exogenous source of autoinducer (AI) (N-hexanoyl homoserine lactone, HHL) for violacein production. C. violaceum CVO26 was cultured in LB broth (Sigma-Aldrich) supplemented with 25 μg ml^-1 kanamycin. Inocula were prepared by dilution (1:100) of an overnight culture of the reporter strain [49]. One hundred microliters of inoculum with HHL (Sigma-Aldrich, 6 μM) or without the AI were added to 96-well plates containing 100 μl of the appropriate dilutions of the test products in LB. Thus, two sets of plates were prepared. One set of plates (without HHL) was used to evaluate the effect of the products on bacterial growth, whereas the other set of plates (with HHL) was used to evaluate their effect on violacein production. Both sets of plates were incubated at 30 °C with agitation (150 rpm) for 18 h.
Growth inhibition was quantified in the first batch of plates by re-suspending bacterial pellets and measuring the OD625. From the second batch of plates violacein was extracted and quantified. Briefly, the plates were dried overnight (60 °C) and violacein was re-solubilized by the addition of 200 μl of DMSO. The plates were shaken for 3 h and then the OD590 was determined.
Indeed, the inhibitions observed in violacein production for long alkyl chains (10–18, 20) were clearly correlated to the biocidal effect exerted by these compounds, with ‘therapeutic ratios’ (IC50 for growth inhibition/IC50 for violacein inhibition) around 1, in general (Table 2). Note that, as the length of the hydrocarbon chain becomes shorter, this ratio increased (8–9). […] To evaluate these compounds in further detail, […] stock solutions were prepared […] to avoid the use of high concentrations of DMSO in the bioassays. […] Serial two-fold dilutions (500–3.9 μM) were assayed. Consequently, the highest amount of DMSO used in the assay was 0.25% (v/v). […] Growth inhibitory effects are only observed at 500 μM, particularly for compound 7 (Fig 6D).

Alternaria sp. = experiment: Marine-derived fungi growth inhibition (OD405); format: cell-based; details: Alternaria, 120 h; growth inhibition, 5 days, 26 °C; read-out: IC50 Alternaria sp.
Description: as §1
(§4) Three strains of marine-derived fungi were kindly provided by Dr. Á. Trigos (University of Veracruz, Mexico). The strains were isolated from reef organisms collected from the Veracruz Reef System and identified as Aspergillus sp., Fusarium sp. and Alternaria sp..
(§5) Fungal strains were cultured in Potato-Dextrose Agar (PDA) supplemented with filtered seawater (FSW) (50% v/v) at 26 °C for 5 days prior to experiments. […] Briefly, fungal inocula were prepared by addition of 5 ml of sterile saline solution to the cultures. Gently swabbing released conidia. […] The plates were incubated for 5 days at 26 °C. The calculation of the half-maximal inhibitory concentrations (IC50) was performed using OD405 as endpoint.

Aspergillus sp. = experiment: Marine-derived fungi growth inhibition (OD405); format: cell-based; details: Aspergillus, 120 h; growth inhibition, 5 days, 26 °C; read-out: IC50 Aspergillus sp.
Description: as §1, §4, §5

Artemia salina nauplii = experiment: in vivo; details: instar I nauplii, 24 h, 28 °C
Description: as §1
Artemia salina cysts (INVE Aquaculture, Ghent, Belgium) were hatched in brackish water (30 ‰ salinity) at 28 °C with aeration and under constant light. Newly hatched instar I nauplii were harvested for bioassays. Tests were conducted in 96-well plates (15±5 nauplii per well, test volume = 200 μl). The number of dead and alive individuals was recorded after 24 h of incubation at 28 °C and 24-hour photoperiod.

CCCCCCCCCCCCCCCCCC[P+](c1ccccc1)(c1ccccc1)c1ccccc1 [Compound 17]
IC50 [1]: 1.2 µM
IC50 (Cylindrotheca sp.): 8 µM
IC50 [2]: 7.4 µM
IC50 (Amphora sp.): 4.2 µM
IC50 (Nitzschia sp.): 7.6 µM
IC50 (C. violaceum CVO26): 7 µM
IC50 (Alternaria sp.): 1.3 µM
IC50 (Aspergillus sp.): 10.2 µM
IC50 A. salina (LC50) (Artemia salina nauplii): <0.5 µM

CCCCCCCCCCCCCCCCCCC[P+](c1ccccc1)(c1ccccc1)c1ccccc1 [Compound 18]
IC50 [1]: 0.8 µM
IC50 (Cylindrotheca sp.): 6.9 µM
IC50 [2]: 16.9 µM
IC50 (Amphora sp.): 3.4 µM
IC50 (Nitzschia sp.): 4.8 µM
IC50 (C. violaceum CVO26): 40.1 µM
IC50 (Alternaria sp.): 5.3 µM
IC50 (Aspergillus sp.): 19.6 µM
IC50 A. salina (LC50) (Artemia salina nauplii): <0.5 µM

c1ccc([P+](CCCCCCCCCCCC[P+](c2ccccc2)(c2ccccc2)c2ccccc2)(c2ccccc2)c2ccccc2)cc1 [Compound 20]
IC50 [1]: 0.6 µM
IC50 (Cylindrotheca sp.): 1.3 µM
IC50 [2]: 1 µM
IC50 (Amphora sp.): 1.6 µM
IC50 (Nitzschia sp.): 2 µM
IC50 (C. violaceum CVO26): 12.8 µM
IC50 (Alternaria sp.): 0.3 µM
IC50 (Aspergillus sp.): 0.6 µM
IC50 A. salina (LC50) (Artemia salina nauplii): 3.0 µM
